From EP4755886A1 (Chengdu Chipscreen Pharmaceutical Ltd., priority 2023, dated 2025)

System: gene-editing MTAP-/- human colon cancer cell strain HCT116
Experiment: Efficacy in MTAP-/- HCT116 subcutaneous xenograft mouse model
Assay type: in vivo, Balb/c nude mice
Conditions: 10 mg/kg, PO, qd, 28 days
Procedure: The blank group contained 40% PEG400 normal saline with 2% DMSO. […] The test substance was intragastrically administered at 10 mg/kg once daily, and MRTX1719 was intragastrically administered at 50 mg/kg once daily. Model control: The vehicle (2% DMSO + 40% PEG400 + 58% normal saline) was intragastrically administered at a dose of 10 mL/kg once daily. Administration was performed for 28 days in total. […] The mice were euthanized on the day when the last administration was completed. […] In the formula, VTt represents the tumor volume of the treatment group at each measurement, and VT0 represents the tumor volume measured when the treatment group is grouped; VCt represents the tumor volume of the vehicle group at each measurement (same as VTt), and VC0 represents the tumor volume measured when the vehicle group is grouped. Data were analyzed using GraphPad Prism 9.0 software and expressed as Mean ± SEM (standard error). Pairwise comparisons between each administration group and the control group were performed using one-way analysis of variance (ANOVA). Variance homogeneity was determined using the Brown-Forsythe method, and variance heterogeneity was determined using the Dunnett's T3 method. Table 7. Efficacy evaluation in HCT116 subcutaneous xenograft mouse model

## CN(C(=O)c1cc2c(cc1F)nc(N)c1cnn(C)c12)[C@@H]1COc2cc(C#Cc3cnn(C)c3)ccc21 [Compound 5A, (S)-4-amino-7-fluoro-N,1-dimethyl-N-(6-((1-methyl-1H-pyrazol-4-yl)ethynyl)-2,3-dihydrobenzofuran-3-yl)-1H-pyrazolo[4,3-c]quinoline-8-carboxamide]
  TGI: 82.25%
  Tumor volume: 378.72 mm^3
